Patent US8562998B2, “Targeting of antigen presenting cells with immunonanotherapeutics” (President and Fellows of Harvard College, priority 2008, dated 2013)

System: anti-nicotine IgG
Test: Anti-nicotine IgG titers in immunized mice (ELISA)
Assay type: in vivo, C57BL6 mice
Conditions: immunized day 0, boosted after 2, 4 and 8 weeks

## CN1CCCC1c1cccnc1 (stereo not shown) [free nicotine, nicotine]
  production of nicotine antibodies: does not elicit the production of nicotine antibodies
